Our source for the MIC and IC50 values is patent US20260224555A1, “NEW PHENYLQUINOLONE COMPOUND HAVING ANTIBACTERIAL AND ANTI-CANCER FUNCTIONS AND PREPARATION THEREOF” (AlphaMol Science Ltd (Shanghai), priority 2022, published 2026).

Structures are written as SMILES. Where two headings read alike, the source gives them in different places.

Holding throughout (assay type): cell-based
For experiment [1], the system named is E. coli ATCC 25922. Nature of the experiment: In vitro antibacterial activity assay (MIC, broth dilution). To be noted: Escherichia coli, ATCC25922.
Experiment [2] concerns S. aureus ATCC 43300. The description is as above. Conditions: Staphylococcus aureus, ATCC43300.
The test system of experiment [3] is human breast cancer cell MFM223. Nature of the experiment: In vitro anticancer activity test (MTT cell proliferation). To be noted: MFM-223. The method, then: (§1) The anticancer activity of the compounds was tested using an in vitro cancer cell tests. The specific test method is as follows:
(§2) 1. Cell recovery and culture method: the cryovial was taken out from the liquid nitrogen container firstly, soaked directly in 37° C. warm water, and shaked from time to time to let it thaw as soon as possible. Then, the cryovial was transferred to a clean bench, and the lid was open. The cell suspension was taken into a centrifuge tube using a rubber-tipped dropper and more than 10 times the culture medium was added, mixed well, and centrifuged at 50 g for 5 minutes. Then, the supernatant was discarded, complete culture medium containing 10% fetal bovine serum was added to resuspend the cells, the cells was counted, the cell density was adjusted, and then inoculated into a culture bottle. The culture bottle was placed in a cell culture incubator at 5% CO2 and 37° C. The complete culture medium was replaced once the next day and the culture was continued.
(§3) 2. Cell passaging method: adherent cells in the logarithmic growth phase were placed in a clean bench, the original culture medium was discarded, and washed three times with 1×PBS. An appropriate amount of 0.25% trypsin digestion solution was added to moisten the cells, and then the trypsin solution was aspirated. The cells were placed in a cell culture incubator at 5% CO2 and 37° C. for digestion for a suitable time, and observed under a microscope. When 90% of the cells become round, the cells were moved immediately to the clean bench and complete culture medium was added to terminate digestion. Then, the cells were dislodged by pipetting up and down with a rubber-tipped dropper to single cells. The cells were counted, and the cell density was adjusted. The cells were inoculated into a suitable culture bottle or dish, added enough complete culture medium, and placed in a cell culture incubator at 5% CO2 and 37° C. for static culture.
(§4) For suspension cells in the logarithmic phase, the original culture medium was directly centrifuged at 50 g for 5 minutes, the supernatant was discarded, and the cells were washed once with PBS and centrifuged. After discarding the supernatant, the complete culture medium was added and the cells were dispersed using a rubber-tipped dropper. The cells are counted, and the cell density was adjusted. The cells were inoculated into appropriate culture bottles or culture dishes, and sufficient complete culture medium was added, and the cells were cultured in a cell culture incubator at 5% CO2 and 37° C.
(§5) 3. Cell proliferation assay: cells in good state in logarithmic phase were taken and appropriate amount of the cells was inoculated into 96-well plates according to the cell passage treatment method, with each well containing 180 μL complete medium. After the cells growth was recovered and the number of cells in each well is 5000±500, a drug was added for treatment.
(§6) After drug treatment during the experimental time, MTT solution with a final concentration of 0.5 mg/mL was added to each well, and placed in a cell culture incubator at 5% CO2 and 37° C. to allow a fully reaction of MTT with cells. After 4 hours, the solution in the 96-well plate was discarded, 100 µL of DMSO was added, and shaked to dissolve the formazan precipitated at the bottom of the plate, and the absorbance value of samples was detected at a wavelength of 570 nm using a microplate reader. Calculation method of cell viability rate: […]

Experiment [4] concerns human acute myeloid leukemia cell MOLM-13. Described as above. The method, then: as §1, §2, §3, §4, §5, §6
For experiment [5], the system named is human gastric cancer cell MGC-803. Described as above. The method, then:
as §1, §2, §3, §4, §5, §6

For experiment [6], the system named is human malignant melanoma cell A375. The description is as above. To be noted: A-375. As for the experimental part: as §1, §2, §3, §4, §5, §6
For experiment [7], the system named is human colon cancer cell HCT 116. The description is as above. The method, then: as §1, §2, §3, §4, §5, §6
Experiment [8] relates to human liver cancer cell BLE-7402. The experiment is described as above. As for the experimental part: as §1, §2, §3, §4, §5, §6
The subject of experiment [9] is human Burkitt's lymphoma cell Raji. Described as above. As for the experimental part:
as §1, §2, §3, §4, §5, §6

In experiment [10] the test system is human glioma cell SNB-19. The experiment is described as above. The method, then:
as §1, §2, §3, §4, §5, §6

Experiment [11] deals with human liver cancer cell HepG2. Described as above. As for the experimental part: as §1, §2, §3, §4, §5, §6
Experiment [12] relates to human bladder transitional cell carcinoma cell T24. The description is as above. Conditions: T-24. As for the experimental part: as §1, §2, §3, §4
Experiment [13] concerns human ovarian adenocarcinoma cell SK-OV-3. The description is as above. The method, then: as §1, §2, §3, §4
The subject of experiment [14] is human breast ductal carcinoma cell T-47D. Described as above. To be noted: T47D. As for the experimental part:
as §1, §2, §3, §4

Experiment [15] has as its system human epidermal carcinoma cell A431. The experiment is described as above. Conditions: A-431. The method, then:
as §1, §2, §3, §4

Experiment [16] deals with human breast cancer cell MCF-7. The experiment is described as above. Conditions: MCF7. The method, then:
as §1, §2, §3, §4

The subject of experiment [17] is human acute T-lymphoblastic leukemia cell Jurkat. The description is as above. As for the experimental part: as §1, §2, §3, §4

As to `O=C(CCl)Nc1ncc(-c2cc3c(cc2F)c(=O)c(C(=O)O)cn3C2CC2)cc1F` [Example 135], the MIC in experiment [1] (Table 3, read-out: MIC E. coli ATCC 25922) is at most 0.1 µg/mL; in [1] (Table 4, read-out: E. coli ATCC 25922 MIC), at most 1 µg/mL; in experiment [2] (Table 3, read-out: MIC S. aureus ATCC 43300), at most 0.1 µg/mL; in experiment [2] (Table 4, read-out: S. aureus ATCC 43300 MIC) it was at most 1 µg/mL. Also, the concentration for half-maximal inhibition (IC50) in experiment [3], in experiment [4], in experiment [5], in experiment [6], in experiment [7] and in [8] was 1 to 10 µM in each case. Besides, the 50% inhibitory concentration (IC50) in [9], in experiment [10], in experiment [11], in [12], in [13] and in experiment [14] was 1 to 10 µM each time. The IC50 in experiment [15], in experiment [16] and in [17] was 1 to 10 µM throughout.
